Experimental data reported in patent publication US20190151371A1, “PROCESS FOR CONTINUOUS CELL CULTURE OF ISLET CELLS” (Georgetown University, priority 2016, published 2019).

Experiments:
islet cells = assay: Islet cell culture with upstream or downstream ROCK pathway inhibitor in place of a ROCK inhibitor; type: cell-based, human; details: used in the culture conditions in place of a ROCK inhibitor
From the text: As used herein, inhibiting ROCK can mean to reduce the activity, function or expression of at least one of ROCK1 or ROCK2. […] In general, ROCK phosphorylates LIM kinase and myosin light chain (MLC) phosphatase after being activated through binding of GTP-bound Rho. One embodiment of the present invention thus involves blocking the upstream pathway of ROCK1 and/or ROCK2, for example GTP-bound Rho, such that ROCK1 and/or ROCK2 is not activated or its activity is reduced over untreated cells. Other upstream effectors include but are not limited to, integrins, growth factor receptors, including but not limited to, TGF-beta and EGFR, cadherins, G protein coupled receptors and the like. Another embodiment of the present invention thus involves blocking the activity, function or expression of downstream effector molecules of activated ROCK1 and/or ROCK2 such that ROCK1 and/or ROCK2 cannot propagate any signal or can only propagate a reduced signal over untreated cells. Downstream effectors include but are not limited to, Myosin phosphatase-targeting protein (MYPT), vimentin, LIMK, Myosin light chain kinase, NHE1, cofilin, Myosin II and the like. […] Upstream or downstream inhibition of ROCK, in place of direct ROCK inhibition and in conjunction with the other culture conditions described and required herein, may or may not generate conditionally immortalized islet cells. […]

airway epithelial cells = details: cited from earlier work

Compound | effect on cell differentiation and proliferation in vitro (islet cells) | effect on airway epithelial cells (airway epithelial cells)
C3 transferase | allow the cells to bypass differentiation and allow proliferation in vitro | 
C[C@@H](N)[C@H]1CC[C@H](C(=O)Nc2ccncc2)CC1 [Y-27632] |  | induces membrane ruffling, loss of actin stress fibers and apoptosis
Cc1ccc2c(c1)C(=O)C1(O)CCN(c3ccccc3)C1=N2 (stereo not shown) [blebbistatin] | allow the cells to bypass differentiation and allow proliferation in vitro | 
O=S(=O)(c1cccc2cnccc12)N1CCCNCC1 [HA 1077, fasudil] |  | induces membrane ruffling, loss of actin stress fibers and apoptosis
